Measured values: patent USRE47302E1 (ONYX THERAPEUTICS INC., priority 2013, dated 2019)
Values after ≈ are worked out from the molar mass of the structure shown. Read-outs that look alike come from different tables or passages of the source.

Legend:
[1] = target: human 20S immunoproteasome (i20S) (Homo sapiens, UniProt P28062); assay: 20S proteasome assay, chymotrypsin-like activity (succinyl-Leu-Leu-Val-Tyr-AMC), i20S; type: biochemical
Excerpt: (§1) Assay buffer consisted of TE buffer [20 mmol/L Tris (pH 8.0), 0.5 mmol/L EDTA] with (20S) or without (cell lysate) 0.03% SDS. Reactions were initiated by enzyme or lysate addition and monitored for AMC product formation at 27jC with a plate-based spectofluorometer (Tecan).

[2] = target: human constitutive 20S proteasome (c20S) (Homo sapiens, UniProt P28074); assay: 20S proteasome assay, chymotrypsin-like activity (succinyl-Leu-Leu-Val-Tyr-AMC), c20S; type: biochemical; conditions: LLVY substrate, 1 h continuous
Excerpt: as §1

Solubility pH 7 = conditions: pH 7, aqueous buffer
[3] = target: T1, immunoproteasome subunit LMP7 (Homo sapiens, UniProt P28062); assay: Proteasome active-site ELISA (ProCISE), LMP7, MOLT-4 lysate; type: biochemical
T1 construct: Lysate from the human acute lymphoblastic leukemia cell line, MOLT-4; endogenous in cells; host or cells: MOLT-4
Procedure, shortened: (§2)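 MOLT-4 cell lysate treated 1 h at 25 °C with compound; probe-bound subunits denatured, pulled down on streptavidin beads and detected with subunit-specific antibodies plus HRP chemiluminescence.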

[4] = target: T2, proteasome subunit β5 (beta5) (Homo sapiens, UniProt P28074); assay: Proteasome active-site ELISA (ProCISE), beta5, MOLT-4 lysate; type: biochemical; conditions: MOLT4 lysate, human, 1 h continuous treatment, 25° C.
T2 construct: Lysate from the human acute lymphoblastic leukemia cell line, MOLT-4; endogenous in cells; host or cells: MOLT-4
Procedure, shortened: as §2

[5] = MOLT4 lysate, 1 h continuous treatment, 25° C.
[6] = read-out: LLVY i20S Hu 1 h CONT: IC50, LLVY substrate, 1 h continuous
[7] = read-out: ProCISE LMP7 MOLT4 lysate Hu 1 h CONT: IC50, 1 h continuous treatment, 25° C.
[8] = read-out: ProCISE beta5 MOLT4 lysate Hu 1 h CONT: IC50

IC50 ([1]; LLVY substrate, 1 h continuous) [nM] | IC50 [2] [nM] | solubility (Solubility pH 7) [µg/mL] | IC50 [3, 5] [nM] | IC50 [4] [nM] | IC50 [1, 6] [nM] | IC50 [3, 7] [nM] | IC50 [4, 8] [nM] | SMILES
3230 | > 10000 | 2640 (≈ 4.37 mM) |  |  |  |  |  | COc1ccc(C[C@H](NC(=O)[C@H](C)NC(=O)CN2CCOCC2)C(=O)N[C@@H](C[C@H]2CC[C@@H](O)CC2)C(=O)[C@@]2(C)CO2)cc1 [Compound C-1001, (S)-N-((S)-3-((1s,4R)-4-hydroxycyclohexyl)-1-((R)-2-methyloxiran-2-yl)-1-oxopropan-2-yl)-3-(4-methoxyphenyl)-2-((S)-2-(2-morpholinoacetamido)propanamido)propanamide]
 |  | 2350 (≈ 3.75 mM) | 45.3 | 409 |  |  |  | COc1ccc(C[C@H](NC(=O)[C@@H](NC(=O)CN2CCOCC2)C2COC2)C(=O)N[C@@H](CC2=CCCCC2)C(=O)[C@@]2(C)CO2)cc1 [Compound C-1138, (S)-N-((S)-3-(Cyclohex-1-en-1-yl)-1-((R)-2-methyloxiran-2-yl)-1-oxopropan-2-yl)-3-(4-methoxyphenyl)-2-((S)-2-(2-morpholinoacetamido)-2-(oxetan-3-yl)acetamido)propanamide]
 |  | > 10000 | 20.1 | 266 |  |  |  | COc1ccc([C@@H](O)[C@H](NC(=O)[C@H](CO)NC(=O)CN2CCOCC2)C(=O)N[C@@H](CC2=CCCC2)C(=O)[C@@]2(C)CO2)cc1 [Compound C-1144, (2S,3R)-N-((S)-3-(cyclopent-1-en-1-yl)-1-((R)-2-methyloxiran-2-yl)-1-oxopropan-2-yl)-3-hydroxy-2-((S)-3-hydroxy-2-(2-morpholinoacetamido)propanamido)-3-(4-methoxyphenyl)propanamide]
 |  | 2090 (≈ 3.79 mM) |  |  | 252 |  |  | C[C@H](NC(=O)CN1CCOCC1)C(=O)N[C@@H](Cc1ccccn1)C(=O)N[C@@H](Cc1ccccc1)C(=O)[C@@]1(C)CO1 [Compound C-1155]
 |  | 3030 (≈ 5.08 mM) |  |  |  | 161 | 874 | COc1ccc(C[C@H](NC(=O)[C@@H](CO)NC(=O)CN2CCOCC2)C(=O)N[C@@H](Cc2ccccc2)C(=O)[C@@]2(C)CO2)cc1 [Compound C-1158]
 |  | 2670 (≈ 4.72 mM) |  |  |  | 82.1 | 581 | COc1ccc(C[C@H](NC(=O)[C@H](C)NC(=O)[C@H]2CCCN2C)C(=O)N[C@@H](Cc2ccccc2)C(=O)[C@@]2(C)CO2)cc1 [Compound C-1164]
 |  | 536 (≈ 0.971 mM) | 360 | 961 |  |  |  | COc1ccc(C[C@H](NC(=O)[C@H](C)NC(=O)[C@H]2CCCO2)C(=O)N[C@@H](Cc2ccccc2)C(=O)[C@@]2(C)CO2)cc1 [Compound C-1166, (R)-N-((S)-1-(((S)-3-(4-methoxyphenyl)-1-(((S)-1-((R)-2-methyloxiran-2-yl)-1-oxo-3-phenylpropan-2-yl)amino)-1-oxopropan-2-yl)amino)-1-oxopropan-2-yl)tetrahydrofuran-2-carboxamide]
 |  | 790 (≈ 1.43 mM) | 155 | 526 |  |  |  | COc1ccc(C[C@H](NC(=O)[C@H](C)NC(=O)[C@@H]2CCCO2)C(=O)N[C@@H](Cc2ccccc2)C(=O)[C@@]2(C)CO2)cc1 [Compound C-1167, (S)-N-((S)-1-(((S)-3-(4-methoxyphenyl)-1-(((S)-1-((R)-2-methyloxiran-2-yl)-1-oxo-3-phenylpropan-2-yl)amino)-1-oxopropan-2-yl)amino)-1-oxopropan-2-yl)tetrahydrofuran-2-carboxamide]
 |  | 1680 (≈ 3.05 mM) |  |  | 63.1 | 51 | 252 | C[C@H](NC(=O)CN1CCOCC1)C(=O)N[C@@H](Cc1ccncc1)C(=O)N[C@@H](Cc1ccccc1)C(=O)[C@@]1(C)CO1 [Compound C-1171]
 |  | 2340 (≈ 3.84 mM) |  |  | 33.6 | 28.9 | 114 | COc1ccc(C[C@H](NC(=O)[C@@H](NC(=O)CN2CCOCC2)[C@@H](C)O)C(=O)N[C@@H](Cc2ccccc2)C(=O)[C@@]2(C)CO2)cc1 [Compound C-1173]
 |  | 2480 (≈ 4.49 mM) |  |  | 129 | 107 | 441 | C[C@H](NC(=O)CN1CCOCC1)C(=O)N[C@@H](Cc1cccnc1)C(=O)N[C@@H](Cc1ccccc1)C(=O)[C@@]1(C)CO1 [Compound C-1175]
 |  | 1190 (≈ 2.05 mM) |  |  | 241 | 510 | 3840 | COc1ccc(C[C@H](NC(=O)[C@H](C)NC(=O)NN2CCOCC2)C(=O)N[C@@H](Cc2ccccc2)C(=O)[C@@]2(C)CO2)cc1 [Compound C-1178]
 |  | 1300 (≈ 2.35 mM) |  |  |  | 119 | 526 | COc1ccc(C[C@H](NC(=O)[C@H](C)NC(=O)CC2COC2)C(=O)N[C@@H](Cc2ccccc2)C(=O)[C@@]2(C)CO2)cc1 [Compound C-1179]
 |  | 1380 (≈ 2.31 mM) |  |  | 25.9 | 21 | 312 | COc1ccc(C[C@H](NC(=O)[C@H](C)NC(=O)CN2CCOCC2)C(=O)N[C@@H](Cc2cccc(F)c2)C(=O)[C@@]2(C)CO2)cc1 [Compound C-1180]
 |  | 938 (≈ 1.58 mM) |  |  | 13.5 | 13.5 | 120 | COc1ccc(C[C@H](NC(=O)[C@H](C)NC(=O)CN2CCOCC2)C(=O)N[C@@H](Cc2ccc(C)cc2)C(=O)[C@@]2(C)CO2)cc1 [Compound C-1181]
 |  | 4540 (≈ 7.29 mM) |  |  | 21.5 | 17.1 | 101 | COc1ccc(C[C@H](NC(=O)[C@@H](NC(=O)CN2CCOCC2)C2COC2)C(=O)N[C@@H](Cc2ccccc2)C(=O)[C@@]2(C)CO2)cc1 [Compound C-1183]
 |  | 2730 (≈ 4.39 mM) |  |  | 10.5 | 19.5 | 63.9 | COc1ccc(C[C@H](NC(=O)[C@@H](NC(=O)CN2CCOCC2)C2(O)CC2)C(=O)N[C@@H](Cc2ccccc2)C(=O)[C@@]2(C)CO2)cc1 [Compound C-1184]
 |  | 130 (≈ 0.225 mM) |  |  |  | 10.5 | 43.4 | COc1ccc(C[C@H](NC(=O)[C@@H](C)NC(=O)[C@H]2CC[C@@H](O)CC2)C(=O)N[C@@H](Cc2ccccc2)C(=O)[C@@]2(C)CO2)cc1 [Compound C-1187]
 |  | 12.1 (≈ 0.0215 mM) |  |  |  | 29.2 | 185 | COc1ccc(C[C@H](NC(=O)[C@@H](C)NC(=O)C2CCCCC2)C(=O)N[C@@H](Cc2ccccc2)C(=O)[C@@]2(C)CO2)cc1 [Compound C-1188]
 |  | 22.7 (≈ 0.0413 mM) |  |  |  | 58.5 | 476 | COc1ccc(C[C@H](NC(=O)[C@@H](C)NC(=O)C2CCCC2)C(=O)N[C@@H](Cc2ccccc2)C(=O)[C@@]2(C)CO2)cc1 [Compound C-1189]
 |  | 457 (≈ 0.769 mM) |  |  |  | 16.8 | 205 | COc1ccc(C[C@H](NC(=O)[C@@H](C)NC(=O)[C@H]2CC[C@H](O)CC2)C(=O)N[C@@H](Cc2ccc(C)cc2)C(=O)[C@@]2(C)CO2)cc1 [Compound C-1190]
 |  | 4250 (≈ 7.13 mM) |  |  |  | 24.7 | 678 | COc1ccc(C[C@H](NC(=O)[C@@H](C)NC(=O)[C@H]2CC[C@H](O)CC2)C(=O)N[C@@H](Cc2ccc(O)cc2)C(=O)[C@@]2(C)CO2)cc1 [Compound C-1191]
 |  |  |  |  | 11 |  |  | COC[C@H](NC(=O)CN1CCOCC1)C(=O)N[C@@H](Cc1ccc(OC)cc1)C(=O)N[C@@H](Cc1ccccc1)C(=O)[C@@]1(C)CO1 [Compound C-1220]
 |  | 3450 (≈ 6.34 mM) |  |  | 18.6 | 49.5 | 205 | C=CC(=O)NC[C@H](NC(=O)[C@H](C)NC(=O)CN1CCOCC1)C(=O)N[C@@H](Cc1ccccc1)C(=O)[C@@]1(C)CO1 [Compound C-1225]
 |  | 1980 (≈ 3.56 mM) |  |  | 649 |  |  | C[C@H](NC(=O)CN1CCOCC1)C(=O)N[C@@H](CC1=CCCCC1)C(=O)N[C@@H](Cc1ccccc1)C(=O)[C@@]1(C)CO1 [Compound C-1227]
 |  |  |  |  | 1500 |  |  | COC[C@H](NC(=O)[C@H](C)NC(=O)CN1CCOCC1)C(=O)N[C@@H](Cc1ccccc1)C(=O)[C@@]1(C)CO1 [Compound C-1234]
 |  |  |  |  | 390 |  |  | C[C@H](NC(=O)CN1CCOCC1)C(=O)N[C@@H](CC1CCCCC1)C(=O)N[C@@H](Cc1ccccc1)C(=O)[C@@]1(C)CO1 [Compound C-1235]
